# Source: publication PMC7139940, “Comparative Analysis of High-Throughput Assays of Family-1 Plant Glycosyltransferases” (International Journal of Molecular Sciences, 2020)
# System: T1, UGT72B27
# T1 construct: recombinant GST fusion (pGEX-4T-1) from E. coli BL21(DE3) pLysS, purified on GST resin
# Experiment: UDP-Glo luminescent UDP release assay, 384-well
# Assay type: biochemical, Vitis vinifera
# Conditions: 100 µM UDP-glucose, 50 mM Tris/HCl pH 7.5, 30 °C, 10 min, heat stop; poorly soluble, high DMSO; read-out: b. UDP-Glo^TM Assay / KM
# Source text: UDP-Glo luminescent UDP release assay, 384-well on UGT72B27
row,Km [µM],Structure (SMILES)
1,21 ± 5,Oc1ccc(/C=C/c2cc(O)cc(O)c2)cc1 [trans-Resveratrol]

# Same assay, conditions: 100 µM UDP-glucose, 50 mM Tris/HCl pH 7.5, 30 °C, 10 min, heat stop; read-out: b. UDP-Glo^TM Assay / KM
row,Structure (SMILES),Km [µM]
1,"COc1cccc(OC)c1O [DMP, 2,6-Dimethoxyphenol]",23 ± 3
2,CC1=C(O)C(=O)C(C)O1 (centres unmarked) [Furaneol],453 ± 35
3,"COc1ccccc1O [Guaiacol, 2-Methoxyphenol]",23 ± 1
4,Oc1ccccc1 [Phenol],153 ± 24
5,Cc1cccc(O)c1 [m-Cresol],14 ± 3
6,Cc1ccccc1O [o-Cresol],40 ± 5

# More lines, now with the values ahead:
row,Km [µM],Structure (SMILES)
1,173 ± 28,"COc1cc(C)cc(OC)c1O [MDMP, 4-Methyl-2,6-dimethoxyphenol]"
2,41 ± 9,"COc1cc(C)ccc1O [MMP, 2-Methoxy-4-methylphenol]"
3,35 ± 4,Oc1cc(O)cc(O)c1 [Phloroglucinol]
4,28 ± 7,Cc1ccc(C(C)C)c(O)c1 [Thymol]
